Results published in the NIST ThermoML archive (doi:10.1021/acs.jced.7b00106).
“And” between values parts separate entries of the source, which are not always exact repeats. Identical values can stand only once. Numbers after ± are expanded uncertainties.

Conditions: Fluid (supercritical or subcritical phases), Hot wire method

For `FC(F)(F)/C=C/Cl` [(E)-1-chloro-3,3,3-trifluoroprop-1-ene], the thermal conductivity (451.44 K, 4091 kPa) was 0.03884 W/m/K, the thermal conductivity (451.45 K, 3691 kPa) was 0.03 ± 0.014 W/m/K and the thermal conductivity (451.45 K, 4479 kPa) was 0.04701 ± 0.011 W/m/K and 0.04717 ± 0.0036 W/m/K. For the same compound, the thermal conductivity (451.46 K, 3650 kPa) was 0.02974 W/m/K, the thermal conductivity (451.47 K, 3830 kPa) was 0.03201 ± 0.014 W/m/K and the thermal conductivity (451.47 K, 4579 kPa) was 0.04622 W/m/K. It also gave a thermal conductivity (451.47 K, 4580 kPa) of 0.04624 W/m/K, a thermal conductivity (451.48 K, 3651 kPa) of 0.02988 ± 0.011 W/m/K and a thermal conductivity (451.48 K, 3831 kPa) of 0.03192 ± 0.014 W/m/K. The thermal conductivity (451.5 K, 3272 kPa) was 0.02692 ± 0.003 W/m/K, the thermal conductivity (451.5 K, 3273 kPa) was 0.02709 ± 0.0011 W/m/K and the thermal conductivity (451.5 K, 4908 kPa) was 0.04557 ± 0.013 W/m/K and 0.04553 ± 0.014 W/m/K. For the same compound, the thermal conductivity (451.51 K, 3508 kPa) was 0.02853 ± 0.0059 W/m/K, the thermal conductivity (451.51 K, 4024 kPa) was 0.03641 W/m/K and the thermal conductivity (451.51 K, 4025 kPa) was 0.03631 W/m/K. The thermal conductivity (451.52 K, 4479 kPa) was 0.04791 W/m/K, the thermal conductivity (451.52 K, 5208 kPa) was 0.04584 ± 0.013 W/m/K and 0.04601 ± 0.0073 W/m/K and the thermal conductivity (451.53 K, 4479 kPa) was 0.04799 ± 0.024 W/m/K. The thermal conductivity (451.54 K, 3691 kPa) was 0.03 ± 0.007 W/m/K and 0.03016 ± 0.0067 W/m/K, the thermal conductivity (451.54 K, 4580 kPa) was 0.04656 W/m/K and the thermal conductivity (451.55 K, 4580 kPa) was 0.04665 W/m/K. It also gave a thermal conductivity (451.56 K, 3650 kPa) of 0.02992 ± 0.014 W/m/K, a thermal conductivity (451.57 K, 3650 kPa) of 0.02995 ± 0.013 W/m/K and a thermal conductivity (451.57 K, 3831 kPa) of 0.0321 W/m/K. The thermal conductivity (451.58 K, 3831 kPa) was 0.0323 W/m/K, the thermal conductivity (451.59 K, 4908 kPa) was 0.04582 ± 0.0093 W/m/K and 0.04575 ± 0.011 W/m/K and the thermal conductivity (451.6 K, 5208 kPa) was 0.04598 ± 0.007 W/m/K and 0.04588 ± 0.0096 W/m/K. The thermal conductivity (451.61 K, 3273 kPa) was 0.02708 ± 0.0027 W/m/K, the thermal conductivity (451.61 K, 4734 kPa) was 0.046 W/m/K and the thermal conductivity (451.62 K, 3273 kPa) was 0.027 ± 0.0029 W/m/K. The thermal conductivity (451.62 K, 3508 kPa) was 0.02859 ± 0.011 W/m/K, the thermal conductivity (451.62 K, 3509 kPa) was 0.02863 ± 0.0068 W/m/K and the thermal conductivity (451.62 K, 4579 kPa) was 0.04727 W/m/K. The thermal conductivity (451.62 K, 4580 kPa) was 0.0472 W/m/K, the thermal conductivity (451.62 K, 4734 kPa) was 0.0461 W/m/K and the thermal conductivity (451.64 K, 3691 kPa) was 0.03032 ± 0.012 W/m/K and 0.03035 ± 0.012 W/m/K. For the same compound, the thermal conductivity (451.66 K, 2992 kPa) was 0.02577 ± 0.0016 W/m/K, the thermal conductivity (451.67 K, 2990 kPa) was 0.02601 ± 0.0012 W/m/K and the thermal conductivity (451.67 K, 3650 kPa) was 0.02999 ± 0.012 W/m/K. It also gave a thermal conductivity (451.67 K, 4909 kPa) of 0.04592 W/m/K, a thermal conductivity (451.68 K, 4909 kPa) of 0.04602 W/m/K and a thermal conductivity (451.68 K, 5207 kPa) of 0.04609 ± 0.01 W/m/K. It also gave a thermal conductivity (451.69 K, 5207 kPa) of 0.04582 ± 0.011 W/m/K, a thermal conductivity (451.7 K, 4580 kPa) of 0.04772 ± 0.02 W/m/K and a thermal conductivity (451.7 K, 4734 kPa) of 0.04631 W/m/K. The thermal conductivity (451.71 K, 4580 kPa) was 0.04774 ± 0.02 W/m/K, the thermal conductivity (451.71 K, 4734 kPa) was 0.04636 W/m/K and the thermal conductivity (451.72 K, 3272 kPa) was 0.02716 ± 0.0037 W/m/K. The thermal conductivity (451.73 K, 2617 kPa) was 0.02492 ± 0.0051 W/m/K and 0.02475 ± 0.0052 W/m/K, the thermal conductivity (451.73 K, 3273 kPa) was 0.02707 ± 0.004 W/m/K and the thermal conductivity (451.74 K, 3509 kPa) was 0.02878 ± 0.011 W/m/K and 0.02877 ± 0.011 W/m/K. For the same compound, the thermal conductivity (451.76 K, 4908 kPa) was 0.04609 W/m/K, the thermal conductivity (451.76 K, 4909 kPa) was 0.04628 W/m/K and the thermal conductivity (451.77 K, 3650 kPa) was 0.0303 ± 0.0098 W/m/K. For the same compound, the thermal conductivity (451.77 K, 5207 kPa) was 0.0462 ± 0.013 W/m/K, the thermal conductivity (451.77 K, 5208 kPa) was 0.04621 ± 0.013 W/m/K and the thermal conductivity (451.78 K, 2992 kPa) was 0.02586 ± 0.0012 W/m/K. It also gave a thermal conductivity (451.78 K, 3650 kPa) of 0.03036 ± 0.011 W/m/K, a thermal conductivity (451.79 K, 2166 kPa) of 0.02402 ± 0.0026 W/m/K and a thermal conductivity (451.79 K, 2992 kPa) of 0.02587 ± 0.0025 W/m/K. The thermal conductivity (451.8 K, 2167 kPa) was 0.02395 ± 0.0041 W/m/K, the thermal conductivity (451.8 K, 4735 kPa) was 0.0468 W/m/K and the thermal conductivity (451.85 K, 3273 kPa) was 0.02717 ± 0.0049 W/m/K and 0.02719 ± 0.0049 W/m/K. For the same compound, the thermal conductivity (451.85 K, 3509 kPa) was 0.02883 ± 0.014 W/m/K, the thermal conductivity (451.86 K, 1669 kPa) was 0.0235 ± 0.0018 W/m/K and the thermal conductivity (451.86 K, 1672 kPa) was 0.02345 ± 0.0013 W/m/K. The thermal conductivity (451.87 K, 2617 kPa) was 0.02483 ± 0.0014 W/m/K, the thermal conductivity (451.87 K, 2618 kPa) was 0.02473 ± 0.0015 W/m/K and the thermal conductivity (451.89 K, 4734 kPa) was 0.0473 W/m/K. The thermal conductivity (451.89 K, 4735 kPa) was 0.04729 W/m/K, the thermal conductivity (451.91 K, 2992 kPa) was 0.02598 ± 0.0039 W/m/K and the thermal conductivity (451.92 K, 2991 kPa) was 0.02605 ± 0.005 W/m/K. It also gave a thermal conductivity (451.93 K, 5207 kPa) of 0.04646 ± 0.017 W/m/K.
